Measurements reported in the NIST ThermoML archive (doi:10.1016/j.jct.2011.10.027).

Experiment: xn = mol fraction of the nth substance listed
Details: 101 kPa, Liquid, Vibrating tube method

CCCCN(CCCC)CCCC [tributylamine] + Cc1ccccc1
mass density [kg/m3]
Details | 293.15 K | 298.15 K | 303.15 K | 313.15 K | 323.15 K | 333.15 K
x1 = 0.0818 | 851.2 | 846.71 | 842.2 | 833.14 | 824.01 | 814.79
x1 = 0.1626 | 838.57 | 834.2 | 829.81 | 821 | 812.13 | 803.18
x1 = 0.2401 | 828.4 | 824.14 | 819.86 | 811.26 | 802.6 | 793.86
x1 = 0.3243 | 819.07 | 814.89 | 810.71 | 802.29 | 793.83 | 785.3
x1 = 0.3987 | 811.93 | 807.83 | 803.72 | 795.46 | 787.15 | 778.78
x1 = 0.4789 | 805.28 | 801.25 | 797.2 | 789.08 | 780.92 | 772.69
x1 = 0.5592 | 799.41 | 795.44 | 791.46 | 783.47 | 775.43 | 767.34
x1 = 0.6414 | 794.14 | 790.22 | 786.3 | 778.42 | 770.5 | 762.52
x1 = 0.7238 | 789.42 | 785.56 | 781.69 | 773.92 | 766.11 | 758.24
x1 = 0.7985 | 785.62 | 781.8 | 777.97 | 770.28 | 762.56 | 754.78
x1 = 0.8802 | 781.79 | 778.01 | 774.23 | 766.64 | 759 | 751.31
x1 = 0.8991 | 780.96 | 777.2 | 773.42 | 765.85 | 758.23 | 750.57

CCCCN(CCCC)CCCC [tributylamine] + Cc1cccc(C)c1
mass density [kg/m3]
Details | 293.15 K | 298.15 K | 303.15 K | 313.15 K | 323.15 K | 333.15 K
x1 = 0.0803 | 851.21 | 846.99 | 842.76 | 834.27 | 825.72 | 817.11
x1 = 0.1564 | 840.57 | 836.42 | 832.26 | 823.89 | 815.48 | 806.98
x1 = 0.2405 | 830.31 | 826.21 | 822.11 | 813.87 | 805.59 | 797.24
x1 = 0.3223 | 821.61 | 817.57 | 813.53 | 805.4 | 797.23 | 788.99
x1 = 0.3983 | 814.42 | 810.43 | 806.43 | 798.4 | 790.32 | 782.19
x1 = 0.4784 | 807.64 | 803.69 | 799.74 | 791.81 | 783.83 | 775.79
x1 = 0.5497 | 802.22 | 798.31 | 794.4 | 786.54 | 778.64 | 770.68
x1 = 0.6375 | 796.16 | 792.3 | 788.42 | 780.65 | 772.84 | 764.97
x1 = 0.7175 | 791.21 | 787.38 | 783.55 | 775.85 | 768.1 | 760.32
x1 = 0.7958 | 786.77 | 782.98 | 779.18 | 771.54 | 763.87 | 756.15
x1 = 0.8823 | 782.31 | 778.55 | 774.78 | 767.21 | 759.6 | 751.95
x1 = 0.9616 | 778.58 | 774.84 | 771.1 | 763.6 | 756.05 | 748.45

CCCCN(CCCC)CCCC [tributylamine] + Cc1ccccc1C
mass density [kg/m3]
Details | 293.15 K | 298.15 K | 303.15 K | 313.15 K | 323.15 K | 333.15 K
x1 = 0.0762 | 865.26 | 861.1 | 856.94 | 848.59 | 840.19 | 831.72
x1 = 0.1611 | 851.26 | 847.17 | 843.07 | 834.83 | 826.55 | 818.19
x1 = 0.2324 | 840.99 | 836.94 | 832.88 | 824.73 | 816.54 | 808.28
x1 = 0.3142 | 830.6 | 826.6 | 822.59 | 814.54 | 806.44 | 798.29
x1 = 0.3986 | 821.15 | 817.19 | 813.22 | 805.26 | 797.25 | 789.19
x1 = 0.481 | 812.95 | 809.03 | 805.1 | 797.21 | 789.28 | 781.29
x1 = 0.5686 | 805.17 | 801.29 | 797.4 | 789.61 | 781.76 | 773.87
x1 = 0.6368 | 799.67 | 795.83 | 791.97 | 784.23 | 776.45 | 768.61
x1 = 0.7145 | 793.98 | 790.16 | 786.34 | 778.66 | 770.94 | 763.17
x1 = 0.769 | 790.27 | 786.47 | 782.67 | 775.03 | 767.36 | 759.64
x1 = 0.8741 | 783.74 | 779.98 | 776.21 | 768.65 | 761.06 | 753.41
x1 = 0.9545 | 779.3 | 775.56 | 771.81 | 764.3 | 756.75 | 749.14

CCCCN(CCCC)CCCC [tributylamine] + O=[N+]([O-])c1ccccc1
mass density [kg/m3]
Details | 293.15 K | 298.15 K | 303.15 K | 313.15 K | 323.15 K | 333.15 K
x1 = 0.0806 | 1132.44 | 1127.65 | 1122.87 | 1113.29 | 1103.7 | 1094.1
x1 = 0.1692 | 1068.2 | 1063.58 | 1058.97 | 1049.72 | 1040.46 | 1031.17
x1 = 0.2426 | 1023.24 | 1018.75 | 1014.26 | 1005.27 | 996.24 | 987.2
x1 = 0.3259 | 979.47 | 975.11 | 970.74 | 961.98 | 953.2 | 944.4
x1 = 0.3993 | 945.96 | 941.69 | 937.43 | 928.86 | 920.27 | 911.63
x1 = 0.4829 | 912.69 | 908.52 | 904.33 | 895.96 | 887.56 | 879.12
x1 = 0.5607 | 885.41 | 881.32 | 877.22 | 869.01 | 860.76 | 852.46
x1 = 0.6392 | 861.09 | 857.07 | 853.04 | 844.97 | 836.86 | 828.72
x1 = 0.7176 | 839.19 | 835.25 | 831.29 | 823.36 | 815.4 | 807.4
x1 = 0.7976 | 819.27 | 815.39 | 811.5 | 803.7 | 795.86 | 787.99
x1 = 0.8779 | 801.19 | 797.38 | 793.55 | 785.88 | 778.17 | 770.42
x1 = 0.9546 | 785.56 | 781.8 | 778.03 | 770.48 | 762.89 | 755.25

CCCCN(CCCC)CCCC [tributylamine] + CCc1ccccc1
mass density [kg/m3]
Details | 293.15 K | 298.15 K | 303.15 K | 313.15 K | 323.15 K | 333.15 K
x1 = 0.0829 | 852.96 | 848.66 | 844.35 | 835.7 | 827 | 818.22
x1 = 0.1602 | 841.78 | 837.56 | 833.34 | 824.84 | 816.3 | 807.68
x1 = 0.2404 | 831.68 | 827.53 | 823.38 | 815.04 | 806.64 | 798.19
x1 = 0.3189 | 823 | 818.92 | 814.83 | 806.62 | 798.36 | 790.04
x1 = 0.3972 | 815.35 | 811.33 | 807.3 | 799.2 | 791.06 | 782.85
x1 = 0.4788 | 808.26 | 804.3 | 800.32 | 792.33 | 784.3 | 776.21
x1 = 0.572 | 801.08 | 797.17 | 793.25 | 785.37 | 777.45 | 769.48
x1 = 0.6382 | 796.47 | 792.6 | 788.71 | 780.91 | 773.07 | 765.18
x1 = 0.7192 | 791.35 | 787.52 | 783.67 | 775.96 | 768.2 | 760.39
x1 = 0.8022 | 786.64 | 782.83 | 779.02 | 771.38 | 763.69 | 755.96
x1 = 0.8765 | 782.75 | 778.98 | 775.21 | 767.62 | 760 | 752.32
x1 = 0.9556 | 778.92 | 775.18 | 771.44 | 763.92 | 756.36 | 748.76

CCCCN(CCCC)CCCC [tributylamine] + Cc1ccc(C)cc1
mass density [kg/m3]
Details | 293.15 K | 298.15 K | 303.15 K | 313.15 K | 323.15 K | 333.15 K
x1 = 0.0834 | 848.23 | 843.97 | 839.71 | 831.14 | 822.53 | 813.86
x1 = 0.1617 | 837.85 | 833.67 | 829.48 | 821.06 | 812.59 | 804.05
x1 = 0.2416 | 828.6 | 824.47 | 820.35 | 812.06 | 803.72 | 795.32
x1 = 0.3196 | 820.59 | 816.53 | 812.46 | 804.29 | 796.06 | 787.79
x1 = 0.3984 | 813.4 | 809.38 | 805.37 | 797.3 | 789.19 | 781.03
x1 = 0.482 | 806.6 | 802.64 | 798.67 | 790.72 | 782.71 | 774.64
x1 = 0.56 | 800.89 | 796.97 | 793.04 | 785.17 | 777.26 | 769.29
x1 = 0.633 | 796.02 | 792.14 | 788.26 | 780.46 | 772.62 | 764.73
x1 = 0.7229 | 790.59 | 786.75 | 782.91 | 775.2 | 767.45 | 759.65
x1 = 0.7717 | 787.86 | 784.05 | 780.24 | 772.57 | 764.86 | 757.1
x1 = 0.878 | 782.45 | 778.68 | 774.9 | 767.33 | 759.71 | 752.04
x1 = 0.9458 | 779.3 | 775.56 | 771.81 | 764.28 | 756.72 | 749.1
